From PubChem BioAssay (NCI) come the findings set out here.

Some test systems named below: A549 NSCLC; K-562 leukemia; KM12 colon; M14 melanoma; SF-268 CNS; SW-620 colon; A498 renal; DU-145 prostate; MCF7 breast; MDA-MB-435.
What all share (experiment): NCI tumour cell line growth inhibition, 48 h

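48-hour exposure; five concentrations; linearly interpolated endpoints. GI50 marks 50% less growth. TGI denotes the concentration required for complete inhibition of growth.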

In the case of `Nc1c(Br)c(=O)[nH]c(=O)n1COCCO`, the TGI with A549 NSCLC, in the assay with K-562 leukemia, with KM12 colon, in the assay with M14 melanoma, in the assay with SF-268 CNS and in the assay with SW-620 colon was over 100 µM throughout.
Consider `O=c1c2cccc3cccc(c4oc5c6cccc7cccc(c(=O)c5c14)c76)c32`, for which the TGI with A498 renal is over 100 µM; in the assay with A549 NSCLC, 25.4 µM; with KM12 colon, 21.2 µM; with M14 melanoma, 17.7 µM; in the assay with SF-268 CNS, 19.6 µM; in the assay with SW-620 colon it was 17 µM.
As to `O=C1Nc2ccccc2C1Cc1ccc([N+](=O)[O-])cc1` (configuration not stated), the TGI with A549 NSCLC, in the assay on DU-145 prostate, in the assay with K-562 leukemia, in the assay with KM12 colon, in the assay on M14 melanoma and with MCF7 breast was over 100 µM each time. Also, the TGI with MDA-MB-435, in the assay with SF-268 CNS and in the assay with SW-620 colon was over 100 µM throughout.
As to `Nc1ccn(CCO)c(=O)n1`, the TGI in the assay with A498 renal, in the assay with A549 NSCLC, in the assay with K-562 leukemia, with KM12 colon, with M14 melanoma and in the assay with SF-268 CNS was over 100 µM each time. In the assay on SW-620 colon, this molecule displayed a TGI of over 100 µM.
`CCN1CCN(CC(=O)Nc2nc3ccc(NCc4ccc(Cl)cc4)cc3s2)CC1`: the GI50 with A498 renal is 4.09 µM; with A549 NSCLC, 2.76 µM; in the assay with DU-145 prostate it was 7.31 µM; with K-562 leukemia it was 1.63 µM; in the assay on KM12 colon it was 3.73 µM; in the assay on M14 melanoma, 1.86 µM. Also, the GI50 in the assay with MDA-MB-435 is 1.9 µM; in the assay on SF-268 CNS, 2.43 µM; in the assay on SW-620 colon it was 2.1 µM. Besides, the TGI is 17 µM in the assay with A498 renal; 8.01 µM in the assay on A549 NSCLC; over 100 µM in the assay with DU-145 prostate; 4.14 µM in the assay on K-562 leukemia; over 100 µM in the assay with KM12 colon; 3.63 µM with M14 melanoma. Further, the TGI is 3.81 µM with MDA-MB-435, 6.29 µM in the assay with SF-268 CNS and 4.78 µM with SW-620 colon.
As to `N#Cc1cccc(C(=O)Nc2cccc(NC(=O)c3cccc(C#N)c3)c2)c1`, the GI50 with A549 NSCLC was 74.3 µM; with DU-145 prostate, 66.6 µM; in the assay on K-562 leukemia, over 100 µM; with M14 melanoma it was over 100 µM; in the assay on MCF7 breast, 90.9 µM; in the assay on MDA-MB-435, over 100 µM. The GI50 with SF-268 CNS is 17 µM; with SW-620 colon, over 100 µM. Further, the TGI with A549 NSCLC, with DU-145 prostate, in the assay with K-562 leukemia, with M14 melanoma, in the assay with MCF7 breast and with MDA-MB-435 was over 100 µM in each case. Further, the TGI is 56 µM with SF-268 CNS and over 100 µM in the assay with SW-620 colon.
Take `O=C(/C=C/c1ccc(Cl)c(Cl)c1)c1ccc(F)cc1`: the TGI in the assay on A498 renal was over 100 µM; in the assay with A549 NSCLC, over 100 µM; with K-562 leukemia, 18.7 µM; with KM12 colon, 21.9 µM; in the assay on M14 melanoma it was 30.5 µM; in the assay on SF-268 CNS it was 56.3 µM. The TGI with SW-620 colon was 4.08 µM.
`Cc1ccc(/C=C2/SC(Nc3nc(-c4nc(NC5=NC(=O)/C(=C\c6ccc(C)cc6)S5)sc4C)c(C)s3)=NC2=O)cc1`: the GI50 with A498 renal is 1.4 µM; in the assay on A549 NSCLC, 1.37 µM; with DU-145 prostate, 0.531 µM; with K-562 leukemia, 0.418 µM; with KM12 colon, 0.289 µM; in the assay with M14 melanoma, 0.0642 µM. Also, the GI50 with MCF7 breast was 1.01 µM; in the assay with SF-268 CNS, 2.51 µM; with SW-620 colon it was 0.714 µM. In addition, the TGI was 7.52 µM with A498 renal; over 36.6 µM in the assay on A549 NSCLC; over 9.82 µM with DU-145 prostate; over 50 µM with K-562 leukemia; 18.6 µM in the assay on KM12 colon; 1.21 µM with M14 melanoma. In addition, the TGI in the assay on MCF7 breast, with SF-268 CNS and in the assay on SW-620 colon was over 50 µM each time.
Regarding `O=C1/C(=C/c2ccc3c(c2)OCO3)CCC1CN1CCOCC1` (configuration not stated), the TGI was determined as 23.9 µM in the assay on A498 renal; 43.3 µM with A549 NSCLC; 29.6 µM with DU-145 prostate; 8.42 µM with K-562 leukemia; 11 µM in the assay with KM12 colon; 15.3 µM with M14 melanoma. For the same molecule, the TGI with MDA-MB-435 was 40.6 µM; in the assay on SF-268 CNS, 28.8 µM; in the assay with SW-620 colon it was 4.83 µM.
`COCC1N=C(c2cc(OC)c(OC)c(OC)c2-c2cc3c(cc2C2OCCCO2)OCO3)O[C@H]1c1ccccc1` (some centres not stated): the TGI in the assay on A498 renal, in the assay on A549 NSCLC, in the assay with K-562 leukemia, with KM12 colon, with M14 melanoma and in the assay on SF-268 CNS was over 100 µM throughout. The TGI in the assay with SW-620 colon was over 100 µM.
Take `N#C/C(=C1\NN=C(N)C(c2ccc(Cl)cc2)=C1O)c1ccc(Cl)cc1`: the TGI in the assay on A498 renal, in the assay on A549 NSCLC, with K-562 leukemia, in the assay on KM12 colon, with M14 melanoma and in the assay on SF-268 CNS was over 100 µM throughout. The TGI in the assay with SW-620 colon was over 100 µM.
In the case of `C=C1C(=O)OC2C1CC[C@H](C)C13OC(=O)CC1[C@@]23C` (some centres not stated), the TGI with A498 renal, with A549 NSCLC, in the assay with K-562 leukemia, in the assay with KM12 colon, with SF-268 CNS and in the assay with SW-620 colon was over 100 µM each time.
Turning to `COc1ccc(C2=NN(C(=O)COc3ccc(Cl)cc3)C(O)(c3ccc(Cl)cc3)C2)cc1` (configuration not stated), the TGI with A549 NSCLC, in the assay with K-562 leukemia, with KM12 colon, in the assay on M14 melanoma, in the assay on SF-268 CNS and with SW-620 colon was over 100 µM each time.
